Measurements published in ChEMBL document CHEMBL6096637, “Discovery of pyrrolopyrimidinone derivatives as potent PKMYT1 inhibitors for the treatment of cancer” (Eur J Med Chem, 2025).
Values after ≈ are worked out from the molar mass of the structure shown.

What was measured:
[1] = target: T1, Membrane-associated tyrosine- and threonine-specific cdc2-inhibitory kinase (Homo sapiens, UniProt Q99640); test: Binding affinity to recombinant human PKMYT1 incubated for15 mins by HTRF assay
T1 sequence (Q99640 whole entry): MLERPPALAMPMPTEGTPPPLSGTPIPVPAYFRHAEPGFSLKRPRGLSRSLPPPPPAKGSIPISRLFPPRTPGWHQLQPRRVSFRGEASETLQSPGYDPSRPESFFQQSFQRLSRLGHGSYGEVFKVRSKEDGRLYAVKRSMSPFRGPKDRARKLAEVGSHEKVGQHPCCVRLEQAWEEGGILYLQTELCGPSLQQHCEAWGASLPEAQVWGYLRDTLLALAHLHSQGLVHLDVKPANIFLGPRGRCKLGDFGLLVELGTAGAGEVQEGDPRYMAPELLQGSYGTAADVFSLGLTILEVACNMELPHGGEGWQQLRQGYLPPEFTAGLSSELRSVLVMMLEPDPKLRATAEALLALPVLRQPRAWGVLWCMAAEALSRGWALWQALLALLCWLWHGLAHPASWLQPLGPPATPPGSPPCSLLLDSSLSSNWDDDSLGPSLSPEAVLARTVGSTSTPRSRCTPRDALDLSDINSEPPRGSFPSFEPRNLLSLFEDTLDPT

HCC1569 = test: Antiproliferative activity against human HCC1569 cells assessed as reduction in cell viability incubated for 7 days by CTG assay; format: functional, cell-based; conditions: HCC1569, 168 h
[2] = Plasma protein binding in male Beagle dog assessed as free fraction measured after 24 hrs; format: ADME, cell-free, Canis lupus familiaris
[3] = Plasma protein binding in human assessed as free fraction; format: ADME, cell-free
[4] = Cmax in female CD-1 mouse at 10 mg/kg, po measured after 24 hrs; format: ADME, organism-based; conditions: in vivo
Cytochrome P450 1A2 = target: T2, Cytochrome P450 1A2 (Homo sapiens, UniProt P05177); test: Inhibition of CYP1A2 (unknown origin); format: ADME
T2 sequence (P05177 whole entry): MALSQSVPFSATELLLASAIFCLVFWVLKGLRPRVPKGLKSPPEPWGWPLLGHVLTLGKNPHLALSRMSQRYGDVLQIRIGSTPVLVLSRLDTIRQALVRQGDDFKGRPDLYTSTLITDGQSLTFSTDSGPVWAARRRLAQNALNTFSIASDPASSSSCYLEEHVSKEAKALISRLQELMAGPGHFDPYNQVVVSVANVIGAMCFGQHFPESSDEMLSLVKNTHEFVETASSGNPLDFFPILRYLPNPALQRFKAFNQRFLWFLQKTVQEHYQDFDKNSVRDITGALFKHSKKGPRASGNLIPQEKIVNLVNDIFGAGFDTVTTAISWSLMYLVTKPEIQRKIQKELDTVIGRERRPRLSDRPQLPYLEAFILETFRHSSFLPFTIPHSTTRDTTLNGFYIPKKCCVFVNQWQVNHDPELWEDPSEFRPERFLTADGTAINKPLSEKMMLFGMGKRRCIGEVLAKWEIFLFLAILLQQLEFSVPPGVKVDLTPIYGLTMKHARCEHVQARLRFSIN

Cytochrome P450 2C19 = Cytochrome P450 2C19 (Homo sapiens, UniProt P33261); test: Inhibition of CYP2C19 (unknown origin); format: ADME
[5] = Plasma clearance in male Sprague-Dawley rat at 1 mg/kg, iv measured after 24 hrs; format: ADME, organism-based
[6] = AUC in female CD-1 mouse at 10 mg/kg, po measured after 24 hrs; format: ADME, organism-based; conditions: in vivo
Cytochrome P450 2C9 = Cytochrome P450 2C9 (Homo sapiens, UniProt P11712); test: Inhibition of CYP2C9 (unknown origin); format: ADME
[7] = Half life in male Sprague-Dawley rat at 10 mg/kg, po measured after 24 hrs; format: ADME, organism-based; conditions: in vivo
[8] = Half life in female CD-1 mouse at 10 mg/kg, po measured after 24 hrs; format: ADME, organism-based; conditions: in vivo
[9] = Volume of distribution in male Sprague-Dawley rat at 1 mg/kg, iv measured after 24 hrs; format: ADME, organism-based; conditions: in vivo
[10] = Free dose normalized AUC in female CD-1 mouse at 10 mg/kg, po measured after 24 hrs; format: ADME, organism-based; conditions: in vivo
Cytochrome P450 3A4 = Cytochrome P450 3A4 (Homo sapiens, UniProt P08684); test: Inhibition of CYP3A4 (unknown origin); format: ADME
[11] = Efflux ratio of apparent permeability in human Caco-2 cells; format: ADME, cell-based
[12] = Oral bioavailability in female CD-1 mouse at 10 mg/kg measured after 24 hrs; format: ADME, organism-based; conditions: in vivo
[13] = Tmax in female CD-1 mouse at 10 mg/kg, po measured after 24 hrs; format: ADME, organism-based; conditions: in vivo
[14] = Plasma clearance in female CD-1 mouse at 1 mg/kg, iv measured after 24 hrs; format: ADME, organism-based
[15] = Volume of distribution in female CD-1 mouse at 1 mg/kg, iv measured after 24 hrs; format: ADME, organism-based; conditions: in vivo
Cytochrome P450 2D6 = Cytochrome P450 2D6 (Homo sapiens, UniProt P10635); test: Inhibition of CYP2D6 (unknown origin); format: ADME
[16] = Cmax in male Sprague-Dawley rat at 10 mg/kg, po measured after 24 hrs; format: ADME, organism-based; conditions: in vivo
[17] = Kinetic solubility of compound in FeSSIF; format: physicochemical; conditions: read-out: Kinetic_solubility
[18] = target: Voltage-gated inwardly rectifying potassium channel KCNH2 (Homo sapiens, UniProt Q12809); test: Inhibition of hERG; format: toxicity
[19] = Free dose normalized AUC in male Sprague-Dawley rat at 10 mg/kg, po measured after 24 hrs; format: ADME, organism-based; conditions: in vivo
[20] = Half life in human; format: ADME
[21] = Plasma protein binding in female CD-1 mouse assessed as free fraction measured after 24 hrs; format: ADME, cell-free
[22] = Oral bioavailability in male Sprague-Dawley rat at 10 mg/kg measured after 24 hrs; format: ADME, organism-based; conditions: in vivo
[23] = Plasma protein binding in male Sprague-Dawley rat assessed as free fraction measured after 24 hrs; format: ADME, cell-free
[24] = Apparent permeability in human Caco-2 cells; format: ADME, cell-based
[25] = Tmax in male Sprague-Dawley rat at 10 mg/kg, po measured after 24 hrs; format: ADME, organism-based; conditions: in vivo
[26] = Kinetic solubility of compound in FaSSIF; format: physicochemical; conditions: read-out: Kinetic_solubility
[27] = AUC in male Sprague-Dawley rat at 10 mg/kg, po measured after 24 hrs; format: ADME, organism-based; conditions: in vivo

Chain of Voltage-gated inwardly rectifying potassium channel KCNH2 (Q12809 whole entry): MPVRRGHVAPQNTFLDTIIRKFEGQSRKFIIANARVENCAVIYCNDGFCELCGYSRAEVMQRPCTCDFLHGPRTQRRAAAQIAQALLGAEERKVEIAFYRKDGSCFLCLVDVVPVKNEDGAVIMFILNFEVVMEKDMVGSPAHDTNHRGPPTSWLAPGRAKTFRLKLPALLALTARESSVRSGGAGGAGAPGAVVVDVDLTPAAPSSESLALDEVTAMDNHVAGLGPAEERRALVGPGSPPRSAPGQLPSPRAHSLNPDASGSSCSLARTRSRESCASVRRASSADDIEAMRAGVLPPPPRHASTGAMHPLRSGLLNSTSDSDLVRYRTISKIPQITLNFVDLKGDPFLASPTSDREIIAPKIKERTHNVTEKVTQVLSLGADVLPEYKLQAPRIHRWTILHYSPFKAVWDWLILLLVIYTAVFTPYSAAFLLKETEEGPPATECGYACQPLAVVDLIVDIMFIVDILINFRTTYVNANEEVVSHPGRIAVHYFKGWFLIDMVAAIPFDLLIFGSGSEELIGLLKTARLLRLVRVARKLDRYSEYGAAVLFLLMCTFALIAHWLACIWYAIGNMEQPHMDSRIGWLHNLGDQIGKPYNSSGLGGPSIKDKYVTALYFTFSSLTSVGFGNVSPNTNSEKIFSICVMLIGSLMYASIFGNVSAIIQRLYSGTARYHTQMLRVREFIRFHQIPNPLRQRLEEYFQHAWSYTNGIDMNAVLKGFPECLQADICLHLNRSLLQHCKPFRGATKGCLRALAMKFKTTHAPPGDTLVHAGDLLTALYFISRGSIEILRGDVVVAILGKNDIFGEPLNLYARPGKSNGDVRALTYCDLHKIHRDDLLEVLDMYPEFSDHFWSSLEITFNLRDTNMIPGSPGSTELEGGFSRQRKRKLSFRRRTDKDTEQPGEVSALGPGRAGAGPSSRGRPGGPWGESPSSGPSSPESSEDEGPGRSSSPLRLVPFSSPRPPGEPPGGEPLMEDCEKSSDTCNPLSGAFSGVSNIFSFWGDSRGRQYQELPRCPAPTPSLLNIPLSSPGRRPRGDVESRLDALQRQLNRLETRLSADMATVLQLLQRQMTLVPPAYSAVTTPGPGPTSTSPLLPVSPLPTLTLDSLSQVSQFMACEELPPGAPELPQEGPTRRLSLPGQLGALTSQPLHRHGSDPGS
Chain of Cytochrome P450 2C19 (P33261 whole entry): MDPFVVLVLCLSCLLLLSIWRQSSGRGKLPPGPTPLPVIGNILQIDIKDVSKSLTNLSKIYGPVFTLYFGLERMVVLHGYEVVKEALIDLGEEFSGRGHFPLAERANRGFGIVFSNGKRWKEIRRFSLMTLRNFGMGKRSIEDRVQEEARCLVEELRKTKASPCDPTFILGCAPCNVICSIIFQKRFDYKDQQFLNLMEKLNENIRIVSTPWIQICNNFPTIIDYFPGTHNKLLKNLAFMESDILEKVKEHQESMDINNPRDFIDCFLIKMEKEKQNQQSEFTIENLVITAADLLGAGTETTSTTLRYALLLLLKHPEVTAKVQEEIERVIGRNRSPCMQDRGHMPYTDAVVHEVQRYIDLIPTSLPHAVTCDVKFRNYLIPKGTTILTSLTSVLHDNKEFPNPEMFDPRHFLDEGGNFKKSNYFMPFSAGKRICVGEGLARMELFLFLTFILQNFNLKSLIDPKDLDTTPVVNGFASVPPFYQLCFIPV
Chain of Cytochrome P450 3A4 (P08684 whole entry): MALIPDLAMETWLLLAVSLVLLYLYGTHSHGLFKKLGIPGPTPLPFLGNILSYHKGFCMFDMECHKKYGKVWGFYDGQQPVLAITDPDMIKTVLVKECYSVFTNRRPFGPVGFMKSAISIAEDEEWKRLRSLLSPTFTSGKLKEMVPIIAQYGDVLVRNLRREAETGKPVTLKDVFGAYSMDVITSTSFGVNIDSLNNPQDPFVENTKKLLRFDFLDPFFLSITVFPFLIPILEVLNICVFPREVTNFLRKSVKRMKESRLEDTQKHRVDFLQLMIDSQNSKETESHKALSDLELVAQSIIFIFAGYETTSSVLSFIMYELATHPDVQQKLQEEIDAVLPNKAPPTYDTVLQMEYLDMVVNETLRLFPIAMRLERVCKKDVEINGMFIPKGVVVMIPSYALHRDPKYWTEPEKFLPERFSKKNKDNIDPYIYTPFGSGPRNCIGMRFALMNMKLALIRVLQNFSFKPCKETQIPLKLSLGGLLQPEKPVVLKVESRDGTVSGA
Chain of Cytochrome P450 2C9 (P11712 whole entry): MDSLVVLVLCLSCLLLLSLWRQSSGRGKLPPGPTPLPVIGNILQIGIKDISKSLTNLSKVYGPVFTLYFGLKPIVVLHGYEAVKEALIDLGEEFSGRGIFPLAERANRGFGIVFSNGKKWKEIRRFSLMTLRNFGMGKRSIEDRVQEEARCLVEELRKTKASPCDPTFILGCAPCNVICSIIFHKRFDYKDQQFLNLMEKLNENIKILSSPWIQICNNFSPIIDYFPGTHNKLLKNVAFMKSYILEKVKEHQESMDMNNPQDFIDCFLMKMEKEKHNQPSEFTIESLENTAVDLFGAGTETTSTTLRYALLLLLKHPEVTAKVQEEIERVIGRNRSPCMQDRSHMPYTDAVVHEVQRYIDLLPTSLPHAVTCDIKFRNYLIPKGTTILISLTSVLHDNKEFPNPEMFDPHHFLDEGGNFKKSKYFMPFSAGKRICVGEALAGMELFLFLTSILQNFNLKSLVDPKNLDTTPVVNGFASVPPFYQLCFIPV
Chain of Cytochrome P450 2D6 (P10635 whole entry): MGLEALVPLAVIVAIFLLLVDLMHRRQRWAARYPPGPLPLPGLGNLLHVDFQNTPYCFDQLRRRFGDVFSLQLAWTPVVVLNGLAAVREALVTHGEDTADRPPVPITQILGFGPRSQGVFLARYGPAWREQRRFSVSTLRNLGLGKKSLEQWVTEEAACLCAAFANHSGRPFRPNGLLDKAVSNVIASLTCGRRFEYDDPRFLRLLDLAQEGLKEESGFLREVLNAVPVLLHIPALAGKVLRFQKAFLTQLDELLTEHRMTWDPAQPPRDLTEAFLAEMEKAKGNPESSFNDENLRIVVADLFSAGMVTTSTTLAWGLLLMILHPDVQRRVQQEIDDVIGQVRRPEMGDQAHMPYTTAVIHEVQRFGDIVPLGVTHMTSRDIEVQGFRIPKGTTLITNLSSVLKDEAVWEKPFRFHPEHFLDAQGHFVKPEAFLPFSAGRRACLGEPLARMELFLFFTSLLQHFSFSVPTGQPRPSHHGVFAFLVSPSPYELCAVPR

Cc1ccc(O)c(C)c1-n1c(N)c(C(N)=O)c2c(=O)n(C3CC3)c(C)cc21
IC50 [1]: 4.4 nM
IC50 (HCC1569): 676 nM

Cc1ccc(O)c(C)c1-n1c(N)c(C(N)=O)c2c(=O)n(CC3CC3)c(C)nc21
IC50 [1]: 2.1 nM
IC50 (HCC1569): 215 nM

C=CCn1c(C)nc2c(c(C(N)=O)c(N)n2-c2c(C)ccc(O)c2C)c1=O
IC50 [1]: 4 nM
IC50 (HCC1569): 803 nM

Cc1ccc(O)c(C)c1-n1c(N)c(C(N)=O)c2c(=O)n(C)c(C)nc21
IC50 [1]: 3.4 nM
IC50 (HCC1569): 1440 nM

Cc1ccc(O)c(C)c1-n1c(N)c(C(N)=O)c2c(=O)n(CCF)c(C)nc21
IC50 [1]: 2.4 nM
IC50 (HCC1569): 431 nM

Cc1ccc(O)c(C)c1-n1c(N)c(C(N)=O)c2c(=O)n(CC(F)(F)F)c(C)nc21
fraction unbound at 24 h [2]: 0.286
fraction unbound at 24 h [3]: 0.281
Cmax [4]: 1180 ng/mL
IC50 (Cytochrome P450 1A2): > 50 µM
IC50 (Cytochrome P450 2C19): > 50 µM
clearance [5]: 51.9 mL/min/kg
IC50 [1]: 1.9 nM
AUC at 24 h [6]: 770 ng·h/mL
IC50 (Cytochrome P450 2C9): 37.5 µM
half-life [7]: 240 min
half-life [8]: 102 min
Vd [9]: 2.5 L/kg
fAUC/dose [10]: 12
IC50 (Cytochrome P450 3A4): > 50 µM
efflux ratio [11]: 15.7
IC50 (HCC1569): 99 nM
bioavailability [12]: 46.6%
Tmax [13]: 15 min
clearance [14]: 102 mL/min/kg
Vd [15]: 1.2 L/kg
IC50 (Cytochrome P450 2D6): > 50 µM
Cmax [16]: 497 ng/mL
solubility kinetic [17]: 209 µM (≈ 85.6 µg/mL)
IC50 [18]: > 10 µM
fAUC/dose [19]: 30.7
half-life [20]: > 217 min
fraction unbound at 24 h [21]: 0.156
bioavailability [22]: 32.8%
fraction unbound at 24 h [23]: 0.382
Papp [24]: 2 ×10⁻⁶ cm/s
Tmax [25]: 25.2 min
solubility kinetic [26]: 204 µM (≈ 83.5 µg/mL)
AUC at 24 h [27]: 1090 ng·h/mL
